Broadly, the Papp A→B is how fast a substance crosses the layer from the apical side. One may read the Papp B→A as the apparent permeability from the basolateral to the apical side of a cell layer.

The source of these data is US20250228882A1, “ORALLY-BIOAVAILABLE NUCLEOSIDE ANALOGS” (Venatorx Pharmaceuticals, Inc., priority 2022, published 2025).

The data set can be described thus: Bidirectional Caco-2 permeability assay. The format is in vitro ADME. The settings on record: human. The protocol:
The bidirectional permeability of compounds across the Caco-2 cell monolayer was assessed. The Caco-2 model is a widely used in vitro model for small intestinal absorption and potential for efflux. Cell culture. Caco-2 cells were grown in DMEM supplemented with 10% fetal bovine serum (FBS), 1% Penicillin-Streptomycin and 1% MEMNEAA. The cells were incubated at 37° C., 5% CO2/95% air and saturated humidity. After reaching 80-90% confluency, the cells were gently detached with trypsin. Cells at passage 39 were seeded on the 24-well BD insert system at the density of 8×10^4 cells/cm^2 and cultured for 19 days with medium changed every 2-3 days. Measure the transepithelial electrical resistance (TEER) value of each well. The wells can be used only when their TEER values are greater than 600 Ohms/cm^2.
Transport assay. After removing the cell culture medium from the 24-well insert plate, the cells were rinsed with warm transport buffer. Appropriate dosing and receiving solutions were applied to the donor and receiver chambers to initiate the transport assay in apical to basolateral (A to B) or basolateral to apical (B to A) directions (500 and 1300 μL for apical and basolateral wells, respectively). Duplicate wells in each direction were used for the test compound and control compound. The plate was incubated in CO2 incubator at 37° C., with 5% CO2/95% air and saturated humidity without shaking. The sample after 10-minute incubation was used as the To sample, and the sample after 90-minute incubation was used as the T90 sample. To and T90 samples were collected from the donor and receiver side of each well at the designed timepoint, mixed with the transport buffer and acetonitrile/MeOH (1:1, v/v) and the internal standard for LC/MS/MS analysis. All samples were vortexed and centrifuged at 4000 rpm at 4° C. for 15 minutes, diluted with pure water and stored at 4° C. before bioanalysis by LC/MS/MS.
Sample analysis. The concentrations of test compounds and control compounds in Caco-2 cells were quantitatively determined by LC/MS/MS method after protein precipitation.
Calculations. The apparent permeability (Papp, cm/s), efflux ratio (ER) and recovery parameters were calculated for Caco-2 drug transport assay using the following equations: […]
where VR is the solution volume in the receiver chamber (0.4 mL on the apical side, 1.2 mL on the basolateral side); Area is the surface area for the insert membrane, i.e., 0.3 cm^2 for the area of the monolayer; Time is incubation time, expressed in seconds, i. e., 5400 s (90 min) for the current experiment; Co is the initial concentration of test compound or peak area ratio of control compounds in the donor chamber (M); VD is the volume in the donor chambers (0.4 mL on the apical side, 1.2 mL on the basolateral side); CD and CR are the final concentrations of test compounds or peak area ratio of control compounds in donor and receiver chambers, respectively.
Compounds with Papp<1.0 are classified as low permeability, Papp between 1-10 are classified as medium permeability, and Papp>10 are classified as high permeability. An efflux ratio (ER)>2 indicates the compounds are potential substrates for intestinal cell efflux transporters.

Where [1] appears, read: Caco-2 monolayer, apical to basolateral, 90-minute incubation, read-out: Papp, A-B.
The mark [2] stands for this setting: Caco-2 monolayer, basolateral to apical, 90-minute incubation, read-out: Papp, B-A.
The mark [3] stands for this setting: Caco-2 monolayer, ER>2 indicates potential efflux substrate, read-out: ER (efflux ratio).

Read-outs that look alike come from different tables or passages of the source.

`CCC(=O)O[C@H]1[C@@H](O)[C@](C#N)(c2ccc3c(NC(=O)OCOC(C)=O)ncnn23)O[C@@H]1COC(=O)[C@@H](N)C(C)(C)C` [Compound 43, ((2R,3S,4R,5R)-5-(4-(((acetoxymethoxy)carbonyl)amino)pyrrolo[2,1-f][1,2,4]triazin-7-yl)-5-cyano-4-hydroxy-3-(propionyloxy)tetrahydrofuran-2-yl)methyl (S)-2-amino-3,3-dimethylbutanoate]: for the setting “Caco-2”, the Papp A→B at 90 min was 1.49 ×10⁻⁶ cm/s, the Papp B→A at 90 min turned out to be 1.02 ×10⁻⁶ cm/s and the efflux ratio at 90 min is 0.69.

For `COC(C)(C)C(=O)Nc1ncnn2c([C@]3(C#N)O[C@H](COC(=O)CC4CCCC4)[C@@H](OC(=O)[C@@H](N)C(C)(C)C)[C@H]3O)ccc12` [Compound 57, (2R,3S,4R,5R)-5-cyano-2-((2-cyclopentylacetoxy)methyl)-4-hydroxy-5-(4-(2-methoxy-2-methylpropanamido)pyrrolo[2,1-f][1,2,4]triazin-7-yl)tetrahydrofuran-3-yl (S)-2-amino-3,3-dimethylbutanoate], for the setting “Caco-2”, the Papp A→B at 90 min turned out to be 16.4 ×10⁻⁶ cm/s, the Papp B→A at 90 min turned out to be 10.1 ×10⁻⁶ cm/s and the efflux ratio at 90 min worked out at 0.61.

As for `COC(C)(C)C(=O)Nc1ncnn2c([C@]3(C#N)O[C@H](COC(=O)CC4CCCCCC4)[C@@H](OC(=O)[C@H](N)C(C)(C)C)[C@H]3O)ccc12` [Compound 70, (2R,3S,4R,5R)-5-cyano-2-((2-cycloheptylacetoxy)methyl)-4-hydroxy-5-(4-(2-methoxy-2-methylpropanamido)pyrrolo[2,1-f][1,2,4]triazin-7-yl)tetrahydrofuran-3-yl (R)-2-amino-3,3-dimethylbutanoate], for the setting “Caco-2”, the Papp A→B at 90 min turned out to be 2.13 ×10⁻⁶ cm/s, the Papp B→A at 90 min worked out at 2.2 ×10⁻⁶ cm/s and the efflux ratio at 90 min turned out to be 1.03.

In the case of `CC(=O)OCOC(=O)Nc1ncnn2c([C@]3(C#N)O[C@H](COC(=O)CC4CCCCC4)[C@@H](OC(=O)[C@@H](N)C(C)(C)C)[C@H]3O)ccc12` [Compound 46, (2R,3S,4R,5R)-5-(4-(((acetoxymethoxy)carbonyl)amino)pyrrolo[2,1-f][1,2,4]triazin-7-yl)-5-cyano-2-((2-cyclohexylacetoxy)methyl)-4-hydroxytetrahydrofuran-3-yl (S)-2-amino-3,3-dimethylbutanoate], under “Caco-2”, the Papp A→B at 90 min was 1.45 ×10⁻⁶ cm/s, the Papp B→A at 90 min was determined as 0.79 ×10⁻⁶ cm/s and the efflux ratio at 90 min turned out to be 0.54.

`CC(=O)OCOC(=O)Nc1ncnn2c([C@]3(C#N)O[C@H](COC(=O)Cc4ccccc4)[C@@H](OC(=O)[C@@H](N)C(C)(C)C)[C@H]3O)ccc12` [Compound 30, (2R,3S,4R,5R)-5-(4-(((acetoxymethoxy)carbonyl)amino)pyrrolo[2,1-f][1,2,4]triazin-7-yl)-5-cyano-4-hydroxy-2-((2-phenylacetoxy)methyl)tetrahydrofuran-3-yl (S)-2-amino-3,3-dimethylbutanoate]: under setting [1], the Papp A→B at 90 min turned out to be 0.09 ×10⁻⁶ cm/s. Also, the Papp B→A at 90 min under setting [2] amounted to 3.11 ×10⁻⁶ cm/s. Moreover, under setting [3], the efflux ratio at 90 min worked out at 34.6.

With `CC(C)(C)[C@H](N)C(=O)OC[C@H]1O[C@@](C#N)(c2ccc3c(N)ncnn23)[C@H](O)[C@@H]1OC(=O)CC1CCCCC1` [Compound 32, ((2R,3S,4R,5R)-5-(4-aminopyrrolo[2,1-f][1,2,4]triazin-7-yl)-5-cyano-3-(2-cyclohexylacetoxy)-4-hydroxytetrahydrofuran-2-yl)methyl (S)-2-amino-3,3-dimethylbutanoate], where the note is “Caco-2”, the Papp A→B at 90 min came out at 15.4 ×10⁻⁶ cm/s, the Papp B→A at 90 min is 20.7 ×10⁻⁶ cm/s and the efflux ratio at 90 min was 1.34.

`CCCCOC(C)(C)C(=O)Nc1ncnn2c([C@]3(C#N)O[C@H](COC(=O)CC4CCCCC4)[C@@H](OC(=O)[C@@H](N)C(C)(C)C)[C@H]3O)ccc12` [Compound 74, (2R,3S,4R,5R)-5-(4-(2-butoxy-2-methylpropanamido)pyrrolo[2,1-f][1,2,4]triazin-7-yl)-5-cyano-2-((2-cyclohexylacetoxy)methyl)-4-hydroxytetrahydrofuran-3-yl (S)-2-amino-3,3-dimethylbutanoate]: under “Caco-2”, the Papp A→B at 90 min was determined as 0.41 ×10⁻⁶ cm/s, the Papp B→A at 90 min turned out to be 0.41 ×10⁻⁶ cm/s and the efflux ratio at 90 min was found to be 1.

Turning to `CC[C@H](C)C(=O)Nc1ncnn2c([C@]3(C#N)O[C@H](COC(=O)CC4CCCCC4)[C@@H](OC(=O)[C@@H](N)C(C)(C)C)[C@H]3O)ccc12` [Compound 13, (2R,3S,4R,5R)-5-cyano-2-((2-cyclohexylacetoxy)methyl)-4-hydroxy-5-(4-((S)-2-methylbutanamido)pyrrolo[2,1-f][1,2,4]triazin-7-yl)tetrahydrofuran-3-yl (S)-2-amino-3,3-dimethylbutanoate], for the setting “Caco-2”, the Papp A→B at 90 min worked out at 3.16 ×10⁻⁶ cm/s, the Papp B→A at 90 min turned out to be 30.5 ×10⁻⁶ cm/s and the efflux ratio at 90 min turned out to be 9.68.

With `CCC(CC)C(=O)Nc1ncnn2c([C@]3(C#N)O[C@H](COC(=O)Cc4ccccc4)[C@@H](OC(=O)[C@@H](N)C(C)(C)C)[C@H]3O)ccc12` [Compound 8, (2R,3S,4R,5R)-5-cyano-5-(4-(2-ethylbutanamido)pyrrolo[2,1-f][1,2,4]triazin-7-yl)-4-hydroxy-2-((2-phenylacetoxy)methyl)tetrahydrofuran-3-yl (S)-2-amino-3,3-dimethylbutanoate], under setting [1], the Papp A→B at 90 min worked out at 0.52 ×10⁻⁶ cm/s. Besides, the Papp B→A at 90 min under setting [2] was 0.13 ×10⁻⁶ cm/s. In addition, the efflux ratio at 90 min under setting [3] was found to be 0.26.

Turning to `CC(C)NC(=O)Nc1ncnn2c([C@]3(C#N)O[C@H](COC(=O)Cc4ccccc4)[C@@H](OC(=O)[C@@H](N)C(C)(C)C)[C@H]3O)ccc12` [Compound 29, (2R,3S,4R,5R)-5-cyano-4-hydroxy-5-(4-(3-isopropylureido)pyrrolo[2,1-f][1,2,4]triazin-7-yl)-2-((2-phenylacetoxy)methyl)tetrahydrofuran-3-yl (S)-2-amino-3,3-dimethylbutanoate], under setting [1], the Papp A→B at 90 min was 1.69 ×10⁻⁶ cm/s. The Papp B→A at 90 min under setting [2] was 19.6 ×10⁻⁶ cm/s. Moreover, under setting [3], the efflux ratio at 90 min amounted to 11.6.

Turning to `CCC(CC)C(=O)Nc1ncnn2c([C@]3(C#N)O[C@H](COC(=O)CC4CCCC4)[C@@H](OC(=O)[C@@H](N)C(C)(C)C)[C@H]3O)ccc12` [Compound 56, (2R,3S,4R,5R)-5-cyano-2-((2-cyclopentylacetoxy)methyl)-5-(4-(2-ethylbutanamido)pyrrolo[2,1-f][1,2,4]triazin-7-yl)-4-hydroxytetrahydrofuran-3-yl (S)-2-amino-3,3-dimethylbutanoate], where the note is “Caco-2”, the Papp A→B at 90 min came out at 7.61 ×10⁻⁶ cm/s, the Papp B→A at 90 min came to 7.57 ×10⁻⁶ cm/s and the efflux ratio at 90 min worked out at 0.99.

In the case of `CC(C)[C@@H](C)C(=O)Nc1ncnn2c([C@]3(C#N)O[C@H](COC(=O)CC4CCCCC4)[C@@H](OC(=O)[C@@H](N)C(C)(C)C)[C@H]3O)ccc12` [Compound 14, (2R,3S,4R,5R)-5-cyano-2-((2-cyclohexylacetoxy)methyl)-5-(4-((R)-2,3-dimethylbutanamido)pyrrolo[2,1-f][1,2,4]triazin-7-yl)-4-hydroxytetrahydrofuran-3-yl (S)-2-amino-3,3-dimethylbutanoate], for the setting “Caco-2”, the Papp A→B at 90 min is 1.96 ×10⁻⁶ cm/s, the Papp B→A at 90 min came to 1.38 ×10⁻⁶ cm/s and the efflux ratio at 90 min was 0.7.
